One compound from article PMC4357015, “Structure, Function and Inhibition of the Phosphoethanolamine Methyltransferases of the Human Malaria Parasites Plasmodium vivax and Plasmodium knowlesi” (Scientific Reports, 2015) can be followed below.

The test system of the assay is PC biosynthesis in pem1Δpem2Δ-pYES2.1-PkPMT. As to the kind of experiment: phospholipid analysis of yeast pem1Δpem2Δ strain expressing PkPMT. The assay is classed as cell-based. As to conditions: 200 μM AQ. The protocol:
Figure 6 PMT-dependent inhibition of PC biosynthesis by AQ and NSC158011. To assess the effect of AQ on phospholipid metabolism, […] and wild-type strains were grown in minimal medium containing 4% galactose and 2 mM ethanolamine in the absence or presence of 200 μM AQ, lipids were extracted and separated by TLC (A). Each lipid class was scrapped off the TLC plate and quantified by measuring phosphorus (B). The effect of NSC158011 on phospholipid biosynthesis was determined by [33P] orthophosphoric acid labeling as described in Material and Methods. Lipids were separated by TLC (C) and quantified by liquid scintillation spectrometry (D). For all assays, data were used to calculate the PC/PI + PA ratio. The data are represented as the mean ± S.D. of at least two independent experiments.
BY4741-pYes2.1 (wild-type) strains and the pem1Δpem2Δ strains harboring pYES2.1 vector, pYES2.1-PkPMT, pYES2.1-PvPMT or pYES2.1-PfPMT were pre-grown to mid-log phase at 30°C in SG-URA medium supplemented with Etn (2 mM) and Cho (2 mM). […] Each lipid class was excised from the plate and quantified by measuring phosphorus. […] After the growth, lipids were extracted and analyzed as described above. […] The resolved radioactive lipids were visualized by Phosphorimager (GE Typhoon) and quantified by liquid scintillation spectrometry as described.

For the compound `CCN(CC)Cc1cc(Nc2ccnc3cc(Cl)ccc23)ccc1O` [AQ, amodiaquine], the “effect on the synthesis of PE” value is recorded as “little to no effect”.
